Measured values reported in US9096593B2, “Compounds and methods for kinase modulation, and indications therefor” (Plexxikon Inc., priority 2009, dated 2015).

Key:
[1] = molecular target: BCR-FMS/BaF3 cells (Homo sapiens, UniProt P07333); assay: BCR-FMS/BaF3 cell proliferation assay (ATPlite); assay type: cell-based
Protocol: Compounds are assessed in a variety of cell based assays. For example BCR-FMS/BaF3, BCR-KIT/BaF3, M-NFS-60, M-07e, and BAC1.2F5 cell proliferation assays are used to assess inhibitory activity of Fms or Kit and MV-4-11 cell proliferation assay is used to assess inhibitory activity in Flt-3. […] On day 1, cells are counted, then centrifuged in a conical tube for 5 minutes at 1000 rpm. The supernatant is removed and cells are re-suspended as follows: • BCR-FMS/BaF3 and BCR-KIT/BaF3: resuspend in growth media+1 mg/mL G418 (without WEHI/IL-3) to 2×10^5 cells/mL. • M-NFS-60: resuspend in growth media +62 ng/mL murine M-CSF to 5×10^5 cells/mL. • M-07e: resuspend in growth media +200 ng/mL human SCF to 5×10^5 cells/mL. • BAC1.2F5: resuspend in growth media +36 ng/mL murine M-CSF to 1.4×10^5 cells/mL. • MV-4-11: resuspend in growth media +10% FBS to 5×10^5 cells/mL. […] On day 2, compound at a maximum concentration of 5 mM is serially diluted 1:3 for a total of 8 point titration with DMSO as a control. A 1 μL aliquot of each dilution point is added to 249 μL growth media and 50 μL is added to a well containing cells, providing 10 μM compound for the maximum concentration point. The cells are incubated for 3 days at 37° C. in 5% CO2. […] ATPlite is added to each well as follows: • BCR-FMS/BaF3 and BCR-KIT/BaF3: 25 μL per well. • M-NFS-60: 25 μL per well. • M-07c: 40 μL per well. • BAC1.2F5: 50 μL per well. • MV-4-11: 40 μL per well. The cells are incubated at room temperature for 10 minutes, then luminescence is read on Safire reader. The measured luminescence correlates directly with cell number, such that the reading as a function of compound concentration is used to determine the IC50 value.

[2] = molecular target: BCR-KIT/BaF3 cells (Homo sapiens, UniProt P10721); assay: BCR-KIT/BaF3 cell proliferation assay (ATPlite); assay type: cell-based; details: read-out: BCR/BaF3 (IC50 μM) Kit
Protocol: Compounds are assessed in a variety of cell based assays. For example BCR-FMS/BaF3, BCR-KIT/BaF3, M-NFS-60, M-07e, and BAC1.2F5 cell proliferation assays are used to assess inhibitory activity of Fms or Kit and MV-4-11 cell proliferation assay is used to assess inhibitory activity in Flt-3. Reagent and assay conditions are as follows: • BCR-FMS/BaF3 and BCR-KIT/BaF3 cells: • Maintained in RPMI containing 10% FBS, 1% PenStrep, 1% NEAA, and 1% L-Glutamine, supplemented with 1 mg/mL G418 and 5% WEHI-CM (or recombinant murine IL-3). • Confluent cells are split 1:50 to 1:100 every 3-4 days. • M-NFS-60 cells (ATCC #CRL-1838): • Maintained in RPMI containing 10% FBS, 1% Hepes, 1% NaPyruvate, and 0.45% Glucose, supplemented with 62 ng/mL murine M-CSF. • Confluent cells are split 1:20 every 3-4 days. • M-07e cells (DSMZ #ACC 104): • Maintained in IMDM containing 10% FBS, supplemented with either 200 ng/mL human SCF or […] SCF (R&D Systems 255-SC). • Confluent cells are split 1:5 to 1:10 every 3-4 days. • BAC1.2F5 cells: • Maintained in Alpha-MEM containing 10% Newborn Calf Serum (Invitrogen #26010-074) supplemented with 36 ng/mL murine M-CSF. • Confluent cells are split 1:4 every 3-4 days. • MV-4-11 cells: • Maintained in Iscove's Modified Dulbecco's Medium containing 10% FBS. • Confluent cells are split 1:4 every 3-4 days. On day 1, cells are counted, then centrifuged in a conical tube for 5 minutes at 1000 rpm. The supernatant is removed and cells are re-suspended as follows: • BCR-FMS/BaF3 and BCR-KIT/BaF3: resuspend in growth media+1 mg/mL G418 (without WEHI/IL-3) to 2×10^5 cells/mL. • M-NFS-60: resuspend in growth media +62 ng/mL murine M-CSF to 5×10^5 cells/mL. • M-07e: resuspend in growth media +200 ng/mL human SCF to 5×10^5 cells/mL. • BAC1.2F5: resuspend in growth media +36 ng/mL murine M-CSF to 1.4×10^5 cells/mL. • MV-4-11: resuspend in growth media +10% FBS to 5×10^5 cells/mL. The cells are plated (50 μL) in each well of a 96-well dish (Corning 3610) and incubated at 37° C. in 5% CO2 overnight, cells plated to a final concentration of cells as follows: • BCR-FMS/BaF3 and BCR-KIT/BaF3: 10,000 cells per well. • M-NFS-60: 25,000 cells per well. • M-07e: 25,000 cells per well. • BAC1.2F5: 7,000 cells per well. • MV-4-11: 25,000 cells per well. On day 2, compound at a maximum concentration of 5 mM is serially diluted 1:3 for a total of 8 point titration with DMSO as a control. A 1 μL aliquot of each dilution point is added to 249 μL growth media and 50 μL is added to a well containing cells, providing 10 μM compound for the maximum concentration point. The cells are incubated for 3 days at 37° C. in 5% CO2. On day 5, ATPlite 1 step Luminescence Assay System (Perkin Elmer #6016739) is brought to room temperature along with the cell cultures. ATPlite is added to each well as follows: • BCR-FMS/BaF3 and BCR-KIT/BaF3: 25 μL per well. • M-NFS-60: 25 μL per well. • M-07c: 40 μL per well. • BAC1.2F5: 50 μL per well. • MV-4-11: 40 μL per well. The cells are incubated at room temperature for 10 minutes, then luminescence is read on Safire reader. The measured luminescence correlates directly with cell number, such that the reading as a function of compound concentration is used to determine the IC50 value.

[3] = molecular target: Fms kinase (Homo sapiens (Human), UniProt P07333); assay: Fms kinase biochemical activity assay (AlphaScreen, biotin-(E4Y)10 phosphorylation); details: read-out: Biochemical activity (IC50 μM) Fms
Protocol: In one assay the biochemical activity IC50 values are determined with respect to inhibition of Fms kinase activity, where inhibition of phosphorylation of a peptide substrate is measured as a function of compound concentration. Compounds to be tested, dissolved in DMSO (1 μL), are added to a white 384-well plate (Costar #3705). Working stocks of Fms kinase (Invitrogen #PV3249), biotin-(E4Y)10 substrate (Upstate Biotech, Cat#12-440), and ATP (Sigma, Cat#A-3377) are prepared in 25 mM Hepes pH 7.5, 0.5 mM MgCl2, 2 mM MnCl2, 2 mM DTT, 0.01% BSA, and 0.01% Tween-20. All components are added to the 384-well plate for a final concentration of 1 ng/well Fms, 30 nM biotin-(E4Y)10 (Upstate Biotechnology) and 100 μM ATP in a volume of 20 μL. Each sample is at 5% DMSO. The plate is then incubated for 20 minutes at 30° C. Just before use, working stocks of donor and acceptor beads from the AlphaScreen PY20 Detection Kit (PerkinElmer, Cat#676601M) are prepared in 25 mM Hepes pH 7.5, pH 7.4, 100 mM EDTA, 0.01% BSA. To stop the reaction, the plate is uncovered in the dark and 5 μL of Donor Beads solution (Streptavidin beads) is added to each well. The plate is incubated at room temperature for 20 minutes. Five microliters of Acceptor Beads solution (PY20 coated beads) are then added to each well. The final concentration of each bead is 10 μg/mL. The plates are incubated at room temperature for 60 minutes. Fluorescence signal is recorded on the Envision reader. […] The signal vs. compound concentration is used to determine the IC50.

[4] = Turbidity assay of relative solubility in aqueous buffers; assay type: physicochemical; details: pH 4.5 (SIF)
Protocol: As an indication of relative solubility, the turbidity of compounds in aqueous solutions is assessed. To assess possible compound properties in different physiological compartments, such as stomach, intestine, and blood, a series of aqueous buffers with varying pH is used. Thus each compound is diluted into four different physiologically relevant buffers and solution turbidity is measured by spectrophotometry.
Compounds are dissolved at a concentration of 25 mM in dimethyl sulfoxide, then serially diluted 1:1 into a 96 well plate, diluting 10 times in pure dimethyl sulfoxide, with the final well of each row a dimethyl sulfoxide blank. In an assay plate, 99 μL of appropriate buffer is added to each well, and 1 μL of each sample dilution is added to the buffer, achieving a range of final total concentrations in aqueous solutions having different pH. The buffers used are Simulated Gastric Fluid (SGF-pH 1.5) 0.5M NaCl, pH 1.5; Simulated Intestinal fluid (SIF-pH 4.5 and pH 6.8) 0.05M NaH2PO4, pH 4.5 and 6.8; and Hepes Buffer (HEPES-pH 7.4) 10 mM HEPES, 150 mM NaCl, pH 7.4. Control compounds pyrene, estriol and propranolol HCl are also assessed. Plates are spun and then mixed for 1 minute, and the absorbance is read using a Tecan Safire II to read wavelengths in the visible range (490, 535, and 650 nm) at four locations per well, reflecting the degree of turbidity present. The average optical density for each wavelength in each well is graphed vs. compound concentration, and the concentration at which the curve crosses a threshold O.D. of 0.01 for each wavelength is reported as the endpoint turbidity assay result. The average of the three wavelengths is used to compare turbidity of compounds. Compounds are considered to have low solubility if the threshold concentration is <31.3 μM, moderate solubility if the threshold concentration is 31.3 μM to 250 μM, and high solubility if the threshold concentration is >250 μM.

Sequence of BCR-FMS/BaF3 cells (P07333 20-972 limits assumed, change not shown): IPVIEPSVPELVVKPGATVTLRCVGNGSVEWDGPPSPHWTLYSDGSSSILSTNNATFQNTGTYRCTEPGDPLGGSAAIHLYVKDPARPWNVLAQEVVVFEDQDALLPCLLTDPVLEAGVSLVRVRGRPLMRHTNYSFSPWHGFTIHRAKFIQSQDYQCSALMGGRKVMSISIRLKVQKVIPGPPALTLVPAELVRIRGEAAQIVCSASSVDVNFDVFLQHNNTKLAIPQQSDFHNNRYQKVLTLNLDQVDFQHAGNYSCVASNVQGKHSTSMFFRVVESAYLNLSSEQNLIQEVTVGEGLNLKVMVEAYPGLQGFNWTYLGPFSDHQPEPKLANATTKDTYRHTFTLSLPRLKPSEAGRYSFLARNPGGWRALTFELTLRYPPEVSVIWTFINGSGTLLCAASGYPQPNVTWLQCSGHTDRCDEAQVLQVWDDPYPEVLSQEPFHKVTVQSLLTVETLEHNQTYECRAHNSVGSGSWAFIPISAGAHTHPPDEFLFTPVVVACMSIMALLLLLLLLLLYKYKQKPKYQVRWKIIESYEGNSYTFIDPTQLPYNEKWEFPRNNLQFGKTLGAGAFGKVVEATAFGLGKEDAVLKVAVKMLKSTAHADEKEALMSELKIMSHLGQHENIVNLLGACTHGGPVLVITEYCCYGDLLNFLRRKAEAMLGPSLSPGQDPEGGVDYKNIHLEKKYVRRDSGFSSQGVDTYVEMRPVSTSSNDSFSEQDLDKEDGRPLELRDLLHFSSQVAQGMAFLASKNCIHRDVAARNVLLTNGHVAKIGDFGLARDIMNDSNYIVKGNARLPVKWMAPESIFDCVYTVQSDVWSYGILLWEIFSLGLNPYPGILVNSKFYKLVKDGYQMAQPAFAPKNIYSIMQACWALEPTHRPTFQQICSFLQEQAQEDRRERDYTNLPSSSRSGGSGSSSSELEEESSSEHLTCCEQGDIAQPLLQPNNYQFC
Sequence of BCR-KIT/BaF3 cells (P10721 26-976 limits assumed, change not shown): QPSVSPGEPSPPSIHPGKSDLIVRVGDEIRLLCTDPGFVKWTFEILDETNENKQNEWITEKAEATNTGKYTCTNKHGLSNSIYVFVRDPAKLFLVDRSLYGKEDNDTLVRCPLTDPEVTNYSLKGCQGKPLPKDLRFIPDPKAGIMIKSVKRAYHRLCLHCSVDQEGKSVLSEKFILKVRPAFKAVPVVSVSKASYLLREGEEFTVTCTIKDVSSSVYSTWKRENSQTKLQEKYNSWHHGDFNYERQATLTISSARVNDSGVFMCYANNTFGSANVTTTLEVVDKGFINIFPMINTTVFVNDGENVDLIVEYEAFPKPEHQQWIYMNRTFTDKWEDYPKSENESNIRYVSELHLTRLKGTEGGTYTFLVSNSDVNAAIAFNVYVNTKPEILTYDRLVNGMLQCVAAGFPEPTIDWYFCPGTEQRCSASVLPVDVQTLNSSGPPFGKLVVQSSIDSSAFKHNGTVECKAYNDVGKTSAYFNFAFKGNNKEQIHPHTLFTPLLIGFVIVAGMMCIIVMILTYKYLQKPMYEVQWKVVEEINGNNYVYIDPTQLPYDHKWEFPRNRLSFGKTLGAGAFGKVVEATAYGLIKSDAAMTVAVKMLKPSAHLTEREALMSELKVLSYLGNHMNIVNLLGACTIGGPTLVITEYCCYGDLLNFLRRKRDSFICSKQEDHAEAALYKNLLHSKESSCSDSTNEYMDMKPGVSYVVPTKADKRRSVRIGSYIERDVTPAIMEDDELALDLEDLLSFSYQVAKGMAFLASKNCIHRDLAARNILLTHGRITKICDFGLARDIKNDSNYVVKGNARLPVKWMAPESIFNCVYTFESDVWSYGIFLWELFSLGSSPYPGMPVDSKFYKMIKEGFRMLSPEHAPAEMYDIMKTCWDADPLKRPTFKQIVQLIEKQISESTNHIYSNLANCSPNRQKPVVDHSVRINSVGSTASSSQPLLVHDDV
Sequence of Fms kinase (P07333 20-972): as the sequence (P07333 20-972 limits assumed, change not shown) above

Compound | IC50 ([1]; BCR-FMS/BaF3 cells, read-out: BCR/BaF3 (IC50 μM) Fms) [µM] | BCR/BaF3 selectivity (Kit IC50/Fms IC50) ([1]; Kit IC50/Fms IC50, BCR-KIT/BaF3 vs BCR-FMS/BaF3 cells) | IC50 [2] [µM] | IC50 [3] [µM] | turbidity threshold (L, M, H) 4.5 [4]
COc1ccc(CNc2ccc(Cc3c[nH]c4ncc(Cl)cc34)cn2)c(OC)n1 [Compound P-1496, [5-(5-Chloro-1H-pyrrolo[2,3-b]pyridin-3-ylmethyl)-pyridin-2-yl]-(2,6-dimethoxy-pyridin-3-ylmethyl)-amine] | < 0.1 | >20 | > 0.1 | < 0.1 | –
COc1ncc(F)cc1CNc1ccc(Cc2c[nH]c3ncc(C#N)cc23)c(F)n1 [Compound P-2193, 3-{2-Fluoro-6-[(5-fluoro-2-methoxy-pyridin-3-ylmethyl)-amino]-pyridin-3-ylmethyl}-1H-pyrrolo[2,3-b]pyridine-5-carbonitrile] | – | – | – | – | L (low solubility if the threshold concentration is <31.3 μM)
